ChEMBL document CHEMBL5506055, “Hit-to-Lead Optimization of the Natural Product Oridonin as Novel NLRP3 Inflammasome Inhibitors with Potent Anti-Inflammation Activity” (J Med Chem, 2024)

Legend:
[1] = target: NACHT, LRR and PYD domains-containing protein 3 (Mus musculus) (UniProt Q8R4B8); assay: Inhibition of NLRP3 inflammasome activation in LPS/ATP-induced C57BL/6 mouse BMDMs assessed as reduction in IL-1beta secretion at 100 nM preincubated with LPS for 4 hrs followed by compound addition for 30 mins and further stimulated with ATP for 30 mins by ELISA relative to control; assay type: cell-based; conditions: BMDM, time 1.0 hrs
Sequence of NACHT, LRR and PYD domains-containing protein 3 (Mus musculus) (Q8R4B8 whole entry, the tested form may be a part): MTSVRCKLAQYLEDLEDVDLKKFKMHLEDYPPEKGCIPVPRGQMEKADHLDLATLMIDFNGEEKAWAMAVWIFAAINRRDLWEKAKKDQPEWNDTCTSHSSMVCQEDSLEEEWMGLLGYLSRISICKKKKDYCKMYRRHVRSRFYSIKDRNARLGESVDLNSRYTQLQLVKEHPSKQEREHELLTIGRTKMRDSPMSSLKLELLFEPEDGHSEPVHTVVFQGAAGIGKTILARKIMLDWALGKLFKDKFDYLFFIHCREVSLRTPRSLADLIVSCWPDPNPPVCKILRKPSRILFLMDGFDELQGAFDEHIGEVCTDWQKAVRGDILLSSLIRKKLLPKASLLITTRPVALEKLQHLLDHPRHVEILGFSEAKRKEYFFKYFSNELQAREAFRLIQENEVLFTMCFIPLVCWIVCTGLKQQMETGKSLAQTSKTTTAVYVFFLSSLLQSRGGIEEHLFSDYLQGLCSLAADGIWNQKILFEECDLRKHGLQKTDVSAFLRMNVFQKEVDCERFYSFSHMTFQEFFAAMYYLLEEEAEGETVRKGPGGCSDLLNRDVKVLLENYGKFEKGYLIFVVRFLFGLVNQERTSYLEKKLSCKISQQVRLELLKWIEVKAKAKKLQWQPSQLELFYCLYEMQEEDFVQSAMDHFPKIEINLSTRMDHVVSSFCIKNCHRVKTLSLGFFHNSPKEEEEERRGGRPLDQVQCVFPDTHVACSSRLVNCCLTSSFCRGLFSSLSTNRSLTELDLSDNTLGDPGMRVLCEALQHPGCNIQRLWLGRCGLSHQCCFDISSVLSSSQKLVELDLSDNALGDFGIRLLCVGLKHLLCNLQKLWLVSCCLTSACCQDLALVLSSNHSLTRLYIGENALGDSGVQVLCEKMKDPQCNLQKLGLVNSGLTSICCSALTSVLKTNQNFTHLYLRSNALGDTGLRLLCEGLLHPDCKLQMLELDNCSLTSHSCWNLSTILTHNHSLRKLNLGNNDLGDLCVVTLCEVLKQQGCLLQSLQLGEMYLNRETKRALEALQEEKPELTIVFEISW

[2] = target: NACHT, LRR and PYD domains-containing protein 3 (Mus musculus) (UniProt Q8R4B8); assay: Inhibition of NLRP3 inflammasome activation in LPS/ATP-induced C57BL/6 mouse BMDMs assessed as reduction in IL-1beta secretion at 200 nM preincubated with LPS for 4 hrs followed by compound addition for 30 mins and further stimulated with ATP for 30 mins by ELISA relative to control; assay type: cell-based; conditions: BMDM, time 1.0 hrs
[3] = target: NACHT, LRR and PYD domains-containing protein 3 (Mus musculus) (UniProt Q8R4B8); assay: Inhibition of NLRP3 inflammasome activation in LPS/ATP-induced C57BL/6 mouse BMDMs assessed as reduction in IL-1beta secretion at 500 nM preincubated with LPS for 4 hrs followed by compound addition for 30 mins and further stimulated with ATP for 30 mins by ELISA relative to control; assay type: cell-based; conditions: BMDM, time 1.0 hrs
[4] = target: NACHT, LRR and PYD domains-containing protein 3 (Mus musculus, UniProt Q8R4B8); assay: Inhibition of NLRP3 inflammasome activation in LPS/ATP-induced C57BL/6 mouse BMDMs assessed as reduction in IL-1beta secretion preincubated with LPS for 4 hrs followed by compound addition for 30 mins and further stimulated with ATP for 30 mins by ELISA; assay type: cell-based, BMDM
Sequence of NACHT, LRR and PYD domains-containing protein 3 (Q8R4B8 whole entry, the tested form may be a part): as above

[5] = target: hERG (KCNH2) (Homo sapiens, UniProt Q12809); assay: Inhibition of human ERG expressed in CHO cells at 40 uM relative to control; assay type: toxicity, cell-based; conditions: CHO cells that express human ERG
Sequence of hERG (KCNH2) (Q12809 whole entry): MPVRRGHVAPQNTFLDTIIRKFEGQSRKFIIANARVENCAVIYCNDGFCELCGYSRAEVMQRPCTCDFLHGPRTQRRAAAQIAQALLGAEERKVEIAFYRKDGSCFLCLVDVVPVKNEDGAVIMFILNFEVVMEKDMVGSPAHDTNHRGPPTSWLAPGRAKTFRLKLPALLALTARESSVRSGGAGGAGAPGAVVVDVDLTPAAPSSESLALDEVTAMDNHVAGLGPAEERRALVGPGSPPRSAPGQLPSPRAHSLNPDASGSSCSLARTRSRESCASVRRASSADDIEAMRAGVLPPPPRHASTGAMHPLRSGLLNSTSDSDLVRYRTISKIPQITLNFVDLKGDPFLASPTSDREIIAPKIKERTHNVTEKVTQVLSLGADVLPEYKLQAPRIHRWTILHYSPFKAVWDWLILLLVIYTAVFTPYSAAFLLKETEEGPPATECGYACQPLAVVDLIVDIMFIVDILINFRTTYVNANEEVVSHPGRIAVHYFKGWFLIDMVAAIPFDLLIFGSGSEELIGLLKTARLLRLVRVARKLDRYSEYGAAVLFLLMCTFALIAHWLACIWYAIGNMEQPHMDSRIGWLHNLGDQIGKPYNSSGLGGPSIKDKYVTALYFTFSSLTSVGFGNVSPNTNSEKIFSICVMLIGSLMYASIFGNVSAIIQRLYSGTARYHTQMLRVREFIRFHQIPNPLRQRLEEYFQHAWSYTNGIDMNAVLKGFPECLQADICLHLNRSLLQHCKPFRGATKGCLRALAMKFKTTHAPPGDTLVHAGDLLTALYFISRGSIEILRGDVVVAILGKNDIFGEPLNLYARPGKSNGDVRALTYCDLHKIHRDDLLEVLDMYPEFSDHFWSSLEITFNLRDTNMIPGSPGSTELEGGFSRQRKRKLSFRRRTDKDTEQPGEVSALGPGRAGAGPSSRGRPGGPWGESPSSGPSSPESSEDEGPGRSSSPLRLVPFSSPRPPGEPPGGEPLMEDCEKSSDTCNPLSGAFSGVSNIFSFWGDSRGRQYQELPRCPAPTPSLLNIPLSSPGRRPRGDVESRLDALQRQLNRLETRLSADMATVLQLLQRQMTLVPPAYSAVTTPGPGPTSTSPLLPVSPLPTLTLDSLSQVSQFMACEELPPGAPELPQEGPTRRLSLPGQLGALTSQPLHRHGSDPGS

Compound	inhibition [1]	inhibition [2]	inhibition [3]	IC50 [4]	inhibition at 40 µM [5]
C=C1C(=O)[C@]23[C@H](O)[C@H]1CC[C@H]2[C@]12C=CCC(C)(C)[C@H]1[C@H](O)[C@@]3(OCCCCCc1ccccc1)OC2	13.3%	44.6%	63.1%	–	–
C=C1C(=O)[C@]23[C@H](O)[C@H]1CC[C@H]2[C@]12C=CCC(C)(C)[C@H]1[C@H](O)[C@@]3(OCCC(=O)N(CCC)CCC)OC2	25.4%	67.4%	71.6%	178 nM	–
C=C1C(=O)[C@]23[C@H](O)[C@H]1CC[C@H]2[C@]12C=CCC(C)(C)[C@H]1[C@H](O)[C@@]3(OCCC(=O)NCCOC)OC2	18%	49%	69.9%	286 nM	–
C=C1C(=O)[C@]23[C@H](O)[C@H]1CC[C@H]2[C@]12C=CCC(C)(C)[C@H]1[C@H](O)[C@@]3(OCCC(=O)NCC(C)C)OC2	40.7%	59.9%	79.1%	137 nM	–
C=C1C(=O)[C@]23[C@H](O)[C@H]1CC[C@H]2[C@]12C=CCC(C)(C)[C@H]1[C@H](O)[C@@]3(OCCC(=O)N1CCCC1)OC2	36.4%	55.9%	79.1%	161 nM	–
C=C1C(=O)[C@]23[C@H](O)[C@H]1CC[C@H]2[C@]12C=CCC(C)(C)[C@H]1[C@H](O)[C@@]3(OCCC(=O)N1CCCCC1)OC2	43.7%	52.4%	82.1%	147 nM	–
COc1cc(N)c(Cl)cc1C(=O)NC1CCN(CCCOc2ccc(F)cc2)CC1OC (stereo unspecified) [CISAPRIDE]	–	–	–	–	98.7%
C=C1C(=O)[C@]23[C@H](OCc4ccc(Cl)cc4)[C@H]1CC[C@H]2[C@]12C=CCC(C)(C)[C@H]1[C@H](O)[C@@]3(O)OC2	44.8%	58.7%	72.4%	–	–
C=C1C(=O)[C@]23[C@H](O)[C@H]1CC[C@H]2[C@]12C=CCC(C)(C)[C@H]1[C@H](O)[C@@]3(OCCC(=O)N1CCN(C)CC1)OC2	45%	60.3%	85.3%	98.5 nM	–
C=C1C(=O)[C@]23[C@H](O)[C@H]1CC[C@H]2[C@]12C=CCC(C)(C)[C@H]1[C@H](O)[C@@]3(O)OC2	30.3%	45.3%	64.3%	–	–
C=C1C(=O)[C@]23[C@H](OCc4ccccc4)[C@H]1CC[C@H]2[C@]12C=CCC(C)(C)[C@H]1[C@H](O)[C@@]3(O)OC2	45.1%	68%	85.5%	–	–
C=C1C(=O)[C@]23[C@H](O)[C@H]1CC[C@H]2[C@]12C=CCC(C)(C)[C@H]1[C@H](O)[C@@]3(OCCC(=O)NC1CCCC1)OC2	42.3%	56%	84.7%	137 nM	–
C=C1C(=O)[C@]23[C@H](OCc4ccc5ccccc5c4)[C@H]1CC[C@H]2[C@]12C=CCC(C)(C)[C@H]1[C@H](O)[C@@]3(O)OC2	33.1%	50.2%	71.4%	–	–
C=C1C(=O)[C@]23[C@H](OCc4ccc(C#N)cc4)[C@H]1CC[C@H]2[C@]12C=CCC(C)(C)[C@H]1[C@H](O)[C@@]3(O)OC2	31.1%	69.6%	86.6%	–	–
C=C1C(=O)[C@]23[C@H](O)[C@H]1CC[C@H]2[C@@]12CO[C@]3(O)[C@@H](O)[C@@H]1C(C)(C)CC[C@@H]2O [ORIDONIN]	0.2%	14.3%	41.2%	780 nM	–
C=C1C(=O)[C@]23[C@H](O)[C@H]1CC[C@H]2[C@]12C=CCC(C)(C)[C@H]1[C@H](O)[C@@]3(OCCC(=O)NC1CCOCC1)OC2	18.5%	36.4%	66.2%	292 nM	–
C=C1C(=O)[C@]23[C@H](O)[C@H]1CC[C@H]2[C@]12C=CCC(C)(C)[C@H]1[C@H](O)[C@@]3(OCCC(=O)NC1CCCCC1)OC2	36.5%	40.6%	74.1%	194 nM	–

Now from value to compound, other results behind:

inhibition [1]	inhibition [2]	inhibition [3]	IC50 [4]	Compound	inhibition at 40 µM [5]
57.1%	68.7%	83%	81.7 nM	C=C1C(=O)[C@]23[C@H](O)[C@H]1CC[C@H]2[C@]12C=CCC(C)(C)[C@H]1[C@H](O)[C@@]3(OCCCC(=O)O)OC2	–
24%	48.4%	66.6%	–	C=C1C(=O)[C@]23[C@H](O)[C@H]1CC[C@H]2[C@]12C=CCC(C)(C)[C@H]1[C@H](O)[C@@]3(OCCCc1ccccc1)OC2	–
50.6%	83%	89.5%	99.3 nM	C=C1C(=O)[C@]23[C@H](O)[C@H]1CC[C@H]2[C@]12C=CCC(C)(C)[C@H]1[C@H](O)[C@@]3(OCc1cnco1)OC2	–
33.3%	38%	65.1%	242 nM	C=C1C(=O)[C@]23[C@H](O)[C@H]1CC[C@H]2[C@]12C=CCC(C)(C)[C@H]1[C@H](O)[C@@]3(OCCC(=O)NC1CC1)OC2	–
24.5%	44.5%	68.4%	232 nM	C=C1C(=O)[C@]23[C@H](O)[C@H]1CC[C@H]2[C@]12C=CCC(C)(C)[C@H]1[C@H](O)C3(OCc1cccnc1)OC2 (single isomer, unassigned)	–
27.2%	43.1%	76.7%	216 nM	C=C1C(=O)[C@]23[C@H](O)[C@H]1CC[C@H]2[C@]12C=CCC(C)(C)[C@H]1[C@H](O)[C@@]3(OCCC(=O)NC)OC2	–
7.3%	47.8%	65%	–	C=C1C(=O)[C@]23[C@H](O)[C@H]1CC[C@H]2[C@]12C=CCC(C)(C)[C@H]1[C@H](O)[C@@]3(OCCCc1ccc(Cl)cc1)OC2	–
38.8%	64.7%	89.2%	–	C=C1C(=O)[C@]23[C@H](O)[C@H]1CC[C@H]2[C@]12C=CCC(C)(C)[C@H]1[C@H](O)[C@@]3(OCc1ccc(C#N)cc1)OC2	–
46.2%	56.7%	63.2%	1890 nM	C=C1C(=O)[C@]23[C@H](O)[C@H]1CC[C@H]2[C@]12C=CCC(C)(C)[C@H]1[C@H](O)[C@@]3(OCc1nccs1)OC2	–
40.5%	63.3%	75.5%	–	C=C1C(=O)[C@]23[C@H](O)[C@H]1CC[C@H]2[C@]12C=CCC(C)(C)[C@H]1[C@H](O)[C@@]3(OCc1ccc(Cl)cc1)OC2	–
56.7%	78.2%	89%	103 nM	C=C1C(=O)[C@]23[C@H](O)[C@H]1CC[C@H]2[C@]12C=CCC(C)(C)[C@H]1[C@H](O)[C@@]3(OCCC(=O)N(C)C)OC2	–
20.3%	47.2%	60%	283 nM	C=C1C(=O)[C@]23[C@H](O)[C@H]1CC[C@H]2[C@]12C=CCC(C)(C)[C@H]1[C@H](O)[C@@]3(OCCC(=O)NCCC)OC2	–
52.6%	62.1%	93.7%	102 nM	C=CCNC(=O)CCO[C@@]12OC[C@]3(C=CCC(C)(C)[C@H]3[C@@H]1O)[C@@H]1CC[C@H]3C(=C)C(=O)[C@]12[C@@H]3O	–
60.9%	79.6%	93.9%	80.5 nM	C=C1C(=O)[C@]23[C@H](O)[C@H]1CC[C@H]2[C@]12C=CCC(C)(C)[C@H]1[C@H](O)[C@@]3(OCc1nc(-c3ccccc3)cs1)OC2	–
35.2%	47.5%	85.7%	–	C=C1C(=O)[C@]23[C@H](O)[C@H]1CC[C@H]2[C@]12C=CCC(C)(C)[C@H]1[C@H](O)[C@@]3(OCc1ccc3ccccc3c1)OC2	–
44.2%	78.8%	96.5%	97.1 nM	C=C1C(=O)[C@]23[C@H](O)[C@H]1CC[C@H]2[C@]12C=CCC(C)(C)[C@H]1[C@H](O)[C@@]3(OCc1cocn1)OC2	–
56.2%	63.6%	84.8%	90.6 nM	C=C1C(=O)[C@]23[C@H](O)[C@H]1CC[C@H]2[C@]12C=CCC(C)(C)[C@H]1[C@H](O)[C@@]3(OCCC(=O)NC(C)C)OC2	–
12.9%	25.5%	55.4%	406 nM	C=C1C(=O)[C@]23[C@H](O)[C@H]1CC[C@H]2[C@]12C=CCC(C)(C)[C@H]1[C@H](O)[C@@]3(OCC(=O)O)OC2	–
42.5%	70.1%	88.1%	–	C=C1C(=O)[C@]23[C@H](O)[C@H]1CC[C@H]2[C@]12C=CCC(C)(C)[C@H]1[C@H](O)[C@@]3(OCc1ccccc1)OC2	–
47.3%	56%	77.3%	100 nM	C=C1C(=O)[C@]23[C@H](O)[C@H]1CC[C@H]2[C@]12C=CCC(C)(C)[C@H]1[C@H](O)[C@@]3(OCc1ccncc1)OC2	–
31.3%	46.5%	66.1%	–	C=C1C(=O)[C@]23[C@H](O)[C@H]1CC[C@H]2[C@]12C=CCC(C)(C)[C@H]1[C@H](O)[C@@]3(OCC)OC2	–
